Experimental data from patent US7297796B2, “Sulfamoyl benzamide derivatives and methods of their use” (Adolor Corporation, priority 2004, dated 2007).

Columns and labels:
[1] = target: T1, CB1 receptor (Homo sapiens, UniProt P21554); test: hCB1 receptor binding, [3H]CP55940 displacement; conditions: human cloned CB1 receptor
T1 construct: expressed in transfected cells; membranes
Protocol: (§1) Ki values in receptor binding experiments were determined by Cheng-Prusoff correction of IC50 values derived from automated nonlinear regression analysis of sigmoidal titration curves using a three-parameter modification (slope set to 1.0) of the four-parameter equation described in Cheng, Y.-C. and W. H. Prusoff, Biochem. Pharmacol. 22:3099-3108 (1973) and DeLean et al., Am. J. Physiol. 235:E97-E102 (1978).
(§2) Chinese hamster ovary cells (CHO-K1), stably transfected with either hCB1 or hCB2, were washed two times with cold PBS, scraped from 500 cm^2 tissue culture plates, and pelleted by centrifugation at 1000×g for 10 min. The supernatant was discarded and the pellet was resuspended in Tris assay buffer (50 mM Tris HCl, pH 7.8, containing 1.0 mM EGTA, 5.0 mM MgCl2, […], and 0.5 mg/mL aprotinin), homogenized with a Polytron homogenizer (Brinkmann) at a setting of 1 for 20 sec and centrifuged at 38,000×g for 20 min at 4° C. The pellet was resuspended in Tris assay buffer and aliquots of 1 mg protein/mL were stored at −80° C. for further use.
(§3) Binding assays were performed by incubating 0.2-0.6 nM (34,000-100,000 dpm) [^3H]CP55940 with membranes prepared from cells expressing cloned human CB1 or CB2 receptors in buffer A (50 mM Tris HCl, pH 7.0, 5.0 mM MgCl2, 1.0 mM EGTA and 1.0 mg/mL fatty acid free bovine serum albumin). After incubation for 60 min at room temperature for the hCB2 binding assay or 120 min at 30° C. for the hCB1 assay, the assays were filtered through GF/C filters that had been pre-soaked overnight in 0.5% (w/v) PEI and 0.1% BSA in water. The filters were rinsed 6 times with one mL of cold wash buffer (50 mM Tris HCl, pH 7.0, 5.0 mM MgCl2, 1.0 mM EGTA and 0.75 mg/mL fatty acid free bovine serum albumin), 30 μL of MicroScint 20 was added to each filter and the radioactivity on the filters determined by scintillation spectroscopy. Nonspecific binding was determined in the presence of 10 μM WIN55212-2.

[2] = target: T2, CB2 receptor (Homo sapiens, UniProt P34972); test: hCB2 receptor binding, [3H]CP55940 displacement; conditions: human cloned CB2 receptor
T2 construct: expressed in transfected cells; membranes
T2 sequence (P34972 whole entry): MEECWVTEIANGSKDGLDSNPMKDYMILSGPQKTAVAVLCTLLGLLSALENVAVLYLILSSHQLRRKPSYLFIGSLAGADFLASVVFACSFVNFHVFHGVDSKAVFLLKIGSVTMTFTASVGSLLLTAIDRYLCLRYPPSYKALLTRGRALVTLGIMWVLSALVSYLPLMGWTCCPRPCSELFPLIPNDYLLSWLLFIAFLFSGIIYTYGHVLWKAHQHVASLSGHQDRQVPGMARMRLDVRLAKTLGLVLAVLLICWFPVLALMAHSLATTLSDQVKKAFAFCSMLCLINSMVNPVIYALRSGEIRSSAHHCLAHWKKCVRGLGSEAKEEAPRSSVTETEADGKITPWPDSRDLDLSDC
Protocol: as §1, §2, §3

[3] = target: T2, CB2 receptor; test: hCB2-mediated [35S]GTPγS binding; type: biochemical; conditions: for EC50: agonist, read-out: in vitro CB2 receptor agonist potency EC50
Protocol: (§4) EC50 values in functional assays were also derived from automated nonlinear regression analysis of sigmoidal titration curves using the three-parameter modification of the four-parameter equation.
as §2
hCB2-Mediated [^35S]GTPγS binding was measured in the same way except the assay mixture contained […] and the incubation time was 6 hours. [^35S]GTPγS binding in rat cerebellar homogenate was determined in a mixture containing 40-60 pM [^35S]GTPγS, homogenate assay buffer (50 mM Tris-HCl, 3 mM MgCl2, 0.2 mM EGTA), 100 mM NaCl, 10 mM MgCl2, […], 20 μg homogenate protein/well and agonist in a total volume of 250 μL in 96 well Basic Flashplates (Perkin Elmer). After incubation at 30° C. for 2 hours, the plates were centrifuged at 800×g at 4° C. for 5 min and the radioactivity bound to the membrane was determined by scintillation spectrometry using the Topcount (Perkin Elmer).

[4] = system: L5 SNL-induced tactile allodynia; test: Neuropathic pain assay: L5 SNL-induced tactile allodynia (von Frey); type: in vivo, rat; conditions: L5 SNL rats, n = 7-8/group
Protocol: Male Sprague-Dawley rats (120-250 g, Harlan Laboratories, Columbus, Ohio) were housed in pairs and allowed free access to food and water throughout the study. Room temperature and humidity were maintained at 21° C. and 70%, respectively. Nerve injury was produced with tight ligation of the left L5 spinal nerve (Kim, S. H., and J. M. Chung, Pain, 50, 355-363 (1992); LaBuda, C. J. and Fuchs, P. N., Exp Neurol., 163, 490-494(2000); LaBuda, C. J. and Fuchs, P. N., Neurosci Letters, 290, 137-140(2000); LaBuda, C. J., Donahue, R., Fuchs, P. N., Pain, 94, 59-63, (2001)). Briefly, animals were placed in the prone position to access the left L4-L6 spinal nerves. Under magnification, approximately one third of the L6 transverse process was removed. The L5 spinal nerve was identified and carefully dissected free from the adjacent L4 spinal nerve and then tightly ligated using 6-0 silk suture. The wound was treated with an antiseptic solution, the muscle layer was sutured, and the wound was closed with wound clips. Sham-operated surgical controls were prepared in the same manner, but the L5 spinal nerve was not […]. All housing conditions and experimental procedures were performed in accordance with the ethical guidelines of the IASP and the Adolor Corporation Animal Care and Use Committee.
Seven to ten animals per group were used for all behavioral assays. After a 7-10 day post-surgical recovery, animals were tested for baseline sensitivity to tactile stimulation of both hindpaws. Allodynic animals were defined as animals having a threshold of less than 7.5 grams of pressure applied to the injured hindpaw. Tactile sensitivity was evaluated using von Frey monofilaments before and after treatment. […] Thirty minutes after treatment, tactile sensitivity was evaluated. Five to seven days later, animals were tested using a different compound. Each animal was tested three times with different compounds. All behavioral testing was performed between 9:00 AM and 5:00 PM in a well-illuminated room with white background noise.
Animals were placed in a Plexiglas chamber (20 cm×10.5 cm×40.5 cm) and habituated for 15 minutes. The chamber was positioned on top of a mesh screen so that von Frey monofilaments could be presented to the plantar surfaces of both hindpaws. Measurements of tactile sensitivity for each hindpaw were obtained using the up/down method (Dixon, W. J., Annu Rev Pharmacol Toxicol 20, 441-462, 1980) with seven von Frey monofilaments (0.04, 0.07, 0.16, 0.4, 1, 6, and 15 grams). Each trial started with a von Frey force of 0.4 g delivered to the right hindpaw and then the left hindpaw for approximately 1-2 sec each. If there was no withdrawal response, the next higher force was delivered. If there was a response, the next lower force was delivered. This procedure was performed until no response was made at the highest force (15 grams) or until four stimuli were administered following the initial response. The 50% paw withdrawal threshold for each paw was calculated using the following formula: [Xth]log=[vFr]log+ky where [vFr] is the force of the last von Frey filament used, k=0.2249 which is the average interval (in log units) between the von Frey monofilaments, and y is a value that depends upon the pattern of withdrawal responses (Dixon, Id.). […] Testing for tactile sensitivity was performed twice and the mean 50% withdrawal value assigned as the tactile sensitivity for the right and left paws for each animal.
Tactile sensitivity for both hindpaws before and after treatments were analyzed using one-way analysis of variance (ANOVA) followed by post-hoc comparisons (protected t-test) for group differences. An alpha level of 0.05 was used for all analyses.

[5] = target: T1, CB1 receptor; test: hCB1-mediated stimulation of [35S]GTPγS binding; type: biochemical; conditions: agonist; read-out: in vitro CB1 receptor agonist potency EC50
Protocol: as §4
as §2, with “The pellet was resuspended in Tris assay buffer and aliquots of 1 mg protein/mL were stored at −80° C. for further use.” left out
hCB1-Mediated stimulation of [^35S]GTPγS binding was measured in a mixture containing 100-150 pM [^35S]GTPγS, 150 mM NaCl, 45 mM MgCl2, […], 0.4 mM DTT, 1 mM EGTA, 1 mg/mL fatty acid free BSA, 25 μg of membrane protein and agonist in a total volume of 250 μL of buffer A in 96 well Basic Flashplates (Perkin Elmer). After incubation at room temperature for 2 hours the plates were centrifuged at 800×g at 4° C. for 5 min and the radioactivity bound to the membranes was determined by scintillation spectrometry using the Topcount (Perkin Elmer).

T1 sequence (P21554 whole entry): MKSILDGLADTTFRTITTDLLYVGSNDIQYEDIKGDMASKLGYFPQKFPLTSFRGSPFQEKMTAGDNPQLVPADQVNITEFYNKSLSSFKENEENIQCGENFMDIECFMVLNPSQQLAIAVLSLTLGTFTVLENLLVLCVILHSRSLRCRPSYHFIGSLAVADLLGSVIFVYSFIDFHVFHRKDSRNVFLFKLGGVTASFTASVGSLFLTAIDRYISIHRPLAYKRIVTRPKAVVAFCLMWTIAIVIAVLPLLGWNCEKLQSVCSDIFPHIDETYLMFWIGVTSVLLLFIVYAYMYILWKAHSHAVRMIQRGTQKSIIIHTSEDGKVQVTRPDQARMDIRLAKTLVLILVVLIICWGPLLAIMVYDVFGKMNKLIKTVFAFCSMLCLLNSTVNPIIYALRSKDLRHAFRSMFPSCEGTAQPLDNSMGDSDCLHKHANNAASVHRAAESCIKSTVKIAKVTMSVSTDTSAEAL

Structure (SMILES) | Ki [1] [nM] | Ki [2] [nM] | Anti-Allodynia [%] ([4]; 3 mg/kg) | EC50 [5] [nM] | EC50 [3] [nM] | further results
CN(Cc1ccccc1)S(=O)(=O)c1cc(C(=O)NC2C(C)(C)[C@@H]3CC[C@]2(C)C3)ccc1Br (stereo in doubt) [Compound 23, 3-(Benzyl-methyl-sulfamoyl)-4-bromo-N-(1,3,3-tri-methyl-bicyclo[2.2.1]hept-2-yl)-benzamide] | > 1000 | 10.3 | – | – | – | IC50 ([3]; antagonist, read-out: in vitro CB2 receptor antagonist potency IC50): 13.7 nM
CN1CCCCC1Cn1cc(C(=O)c2cc([N+](=O)[O-])ccc2I)c2ccccc21 (centres unmarked) [AM1241, reference compound] | – | – | 27.5 ± 10.1 | – | – | –
CC1(C)[C@@H]2CC[C@@](C)(C2)[C@@H]1NC(=O)c1ccc(Br)c(S(=O)(=O)N2CCCCC2)c1 [Compound 17, 4-Bromo-3-(piperidine-1-sul-fonyl)-N-(1,3,3-tri-methylbicyclo[2.2.1]hept-2-yl)-benzamide] | 93 | 13.1 | – | 326 | 18.2 | –
Cc1ccc(C(=O)N[C@H]2C(C)(C)[C@@H]3CC[C@@]2(C)C3)cc1S(=O)(=O)N1CCOCC1 [Compound 26, 4-Methyl-3-(morpholine-4-sul-fonyl)-N,S-(1,3,3-tri-methyl-bicyclo[2.2.1]-hept-2-yl)-benzamide] | 121 | 3.7 | 61.7 ± 13.6 | 2000 | 7.8 | Anti-Allodynia [%] ([4]; 1 mg/kg): 53.5 ± 14.2%; Anti-Allodynia [%] ([4]; 6 mg/kg): 61.1 ± 12.6 %; Anti-Allodynia [%] ([4]; 10 mg/kg): 44.0 ± 16.2%
Cc1c(C(=O)c2cccc3ccccc23)c2cccc3c2n1[C@H](CN1CCOCC1)CO3 [WIN, WIN 55,212-2, reference compound] | – | – | – | – | – | Anti-Allodynia [%] ([4]; 2.5 mg/kg): 75.2 ± 13.8%
